Laboratory results published in patent publication US10670605B2, “Cysteine reactive probes and uses thereof” (The Scripps Research Institute, priority 2015, dated 2020).

Columns and labels:
Assay in all cases: Competitive isoTOP-ABPP in situ (fragment-treated cells)
Type in all cases: cell-based
[1] = molecular target: T1, cysteines in MDA-MB-231 and Ramos cells (Homo sapiens, UniProt Q9Y679)
T1 sequence (Q9Y679 1-410): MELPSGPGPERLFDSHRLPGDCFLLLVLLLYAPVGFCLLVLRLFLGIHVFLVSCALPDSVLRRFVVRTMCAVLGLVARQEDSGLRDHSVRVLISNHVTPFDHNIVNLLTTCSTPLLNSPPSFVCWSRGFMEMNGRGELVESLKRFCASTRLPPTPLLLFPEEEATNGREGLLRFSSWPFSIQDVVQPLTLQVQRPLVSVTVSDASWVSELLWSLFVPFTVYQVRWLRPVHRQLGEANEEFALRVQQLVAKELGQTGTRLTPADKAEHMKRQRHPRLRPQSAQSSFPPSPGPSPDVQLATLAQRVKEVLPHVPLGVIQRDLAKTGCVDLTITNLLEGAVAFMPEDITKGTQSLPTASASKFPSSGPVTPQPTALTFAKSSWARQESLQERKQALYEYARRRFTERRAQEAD

[2] = molecular target: T2, cysteines in MDA-MB-231 and Ramos cells (Homo sapiens, UniProt Q86YH6)
T2 sequence (Q86YH6 1-399): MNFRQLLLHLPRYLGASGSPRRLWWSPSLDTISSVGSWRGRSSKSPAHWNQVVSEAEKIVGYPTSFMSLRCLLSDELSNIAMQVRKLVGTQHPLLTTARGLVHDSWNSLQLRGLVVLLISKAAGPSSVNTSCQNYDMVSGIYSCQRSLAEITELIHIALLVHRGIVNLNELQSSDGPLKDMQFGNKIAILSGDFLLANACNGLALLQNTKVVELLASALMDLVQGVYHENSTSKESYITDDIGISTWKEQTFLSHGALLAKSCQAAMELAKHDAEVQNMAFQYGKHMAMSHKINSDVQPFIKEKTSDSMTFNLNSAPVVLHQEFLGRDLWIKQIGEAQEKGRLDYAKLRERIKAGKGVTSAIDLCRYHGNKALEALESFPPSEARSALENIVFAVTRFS

[3] = molecular target: cysteines in MDA-MB-231 and Ramos cells (Homo sapiens, UniProt Q8NBS9)
Sequence of cysteines in MDA-MB-231 and Ramos cells (Homo sapiens, UniProt Q8NBS9) (Q8NBS9 33-432): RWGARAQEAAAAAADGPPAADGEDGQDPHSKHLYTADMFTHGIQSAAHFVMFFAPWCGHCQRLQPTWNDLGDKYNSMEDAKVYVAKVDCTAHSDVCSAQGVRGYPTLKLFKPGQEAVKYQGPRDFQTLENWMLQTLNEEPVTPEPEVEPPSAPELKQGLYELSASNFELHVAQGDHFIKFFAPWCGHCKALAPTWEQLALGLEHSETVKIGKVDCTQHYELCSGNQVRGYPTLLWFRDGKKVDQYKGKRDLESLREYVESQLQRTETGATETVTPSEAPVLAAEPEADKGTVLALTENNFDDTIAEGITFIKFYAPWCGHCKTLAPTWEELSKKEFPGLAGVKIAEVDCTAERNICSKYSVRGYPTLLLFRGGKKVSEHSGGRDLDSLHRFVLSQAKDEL

[4] = molecular target: T3, cysteines in MDA-MB-231 and Ramos cells (Homo sapiens, UniProt Q9NWA0)
T3 sequence (Q9NWA0 1-146): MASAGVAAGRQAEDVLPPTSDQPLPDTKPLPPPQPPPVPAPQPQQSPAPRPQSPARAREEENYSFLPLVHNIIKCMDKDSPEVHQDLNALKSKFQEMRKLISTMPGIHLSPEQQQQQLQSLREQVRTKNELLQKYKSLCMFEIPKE

[5] = molecular target: T4, cysteines in MDA-MB-231 and Ramos cells (Homo sapiens, UniProt Q86W42)
T4 sequence (Q86W42 1-341): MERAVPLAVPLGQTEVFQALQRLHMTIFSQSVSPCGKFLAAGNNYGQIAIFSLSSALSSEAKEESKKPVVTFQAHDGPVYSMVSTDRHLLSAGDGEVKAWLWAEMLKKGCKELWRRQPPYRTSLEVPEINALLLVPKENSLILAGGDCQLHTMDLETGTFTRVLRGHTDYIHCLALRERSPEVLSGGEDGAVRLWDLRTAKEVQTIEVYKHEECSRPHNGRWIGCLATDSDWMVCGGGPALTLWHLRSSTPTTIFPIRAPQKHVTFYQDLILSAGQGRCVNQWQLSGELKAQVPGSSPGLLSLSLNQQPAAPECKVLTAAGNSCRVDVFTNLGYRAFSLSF

[6] = molecular target: T5, cysteines in MDA-MB-231 and Ramos cells (Homo sapiens, UniProt O43175); conditions: 200 μM, insitu
T5 sequence (O43175 1-533): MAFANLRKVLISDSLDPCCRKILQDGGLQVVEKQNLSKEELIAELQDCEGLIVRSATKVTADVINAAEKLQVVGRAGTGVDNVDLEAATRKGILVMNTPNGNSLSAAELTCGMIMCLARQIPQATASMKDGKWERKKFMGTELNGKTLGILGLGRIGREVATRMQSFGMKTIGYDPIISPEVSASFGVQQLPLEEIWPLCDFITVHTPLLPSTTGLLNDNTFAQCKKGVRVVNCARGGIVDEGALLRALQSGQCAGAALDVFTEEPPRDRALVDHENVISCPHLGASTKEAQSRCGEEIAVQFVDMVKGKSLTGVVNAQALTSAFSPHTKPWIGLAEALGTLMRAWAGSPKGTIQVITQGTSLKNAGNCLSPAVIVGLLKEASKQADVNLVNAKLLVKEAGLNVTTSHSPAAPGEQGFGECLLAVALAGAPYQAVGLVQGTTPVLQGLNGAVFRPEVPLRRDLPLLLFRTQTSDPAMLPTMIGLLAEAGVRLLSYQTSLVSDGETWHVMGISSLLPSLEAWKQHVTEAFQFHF

[7] = molecular target: T6, cysteines in MDA-MB-231 and Ramos cells (Homo sapiens, UniProt Q5JPI3)
T6 sequence (Q5JPI3 1-329): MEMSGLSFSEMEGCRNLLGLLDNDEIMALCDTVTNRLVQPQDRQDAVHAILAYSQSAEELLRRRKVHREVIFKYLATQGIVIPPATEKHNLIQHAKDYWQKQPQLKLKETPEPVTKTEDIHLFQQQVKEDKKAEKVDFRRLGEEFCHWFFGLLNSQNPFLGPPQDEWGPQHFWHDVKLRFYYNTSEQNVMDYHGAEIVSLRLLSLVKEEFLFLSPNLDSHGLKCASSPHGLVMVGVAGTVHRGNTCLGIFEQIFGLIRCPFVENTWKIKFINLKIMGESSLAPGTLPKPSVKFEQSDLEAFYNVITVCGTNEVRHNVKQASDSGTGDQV

[8] = molecular target: cysteines in MDA-MB-231 and Ramos cells (Homo sapiens, UniProt P27708); conditions: 200 μM, insitu
Sequence of cysteines in MDA-MB-231 and Ramos cells (Homo sapiens, UniProt P27708) (P27708 whole entry): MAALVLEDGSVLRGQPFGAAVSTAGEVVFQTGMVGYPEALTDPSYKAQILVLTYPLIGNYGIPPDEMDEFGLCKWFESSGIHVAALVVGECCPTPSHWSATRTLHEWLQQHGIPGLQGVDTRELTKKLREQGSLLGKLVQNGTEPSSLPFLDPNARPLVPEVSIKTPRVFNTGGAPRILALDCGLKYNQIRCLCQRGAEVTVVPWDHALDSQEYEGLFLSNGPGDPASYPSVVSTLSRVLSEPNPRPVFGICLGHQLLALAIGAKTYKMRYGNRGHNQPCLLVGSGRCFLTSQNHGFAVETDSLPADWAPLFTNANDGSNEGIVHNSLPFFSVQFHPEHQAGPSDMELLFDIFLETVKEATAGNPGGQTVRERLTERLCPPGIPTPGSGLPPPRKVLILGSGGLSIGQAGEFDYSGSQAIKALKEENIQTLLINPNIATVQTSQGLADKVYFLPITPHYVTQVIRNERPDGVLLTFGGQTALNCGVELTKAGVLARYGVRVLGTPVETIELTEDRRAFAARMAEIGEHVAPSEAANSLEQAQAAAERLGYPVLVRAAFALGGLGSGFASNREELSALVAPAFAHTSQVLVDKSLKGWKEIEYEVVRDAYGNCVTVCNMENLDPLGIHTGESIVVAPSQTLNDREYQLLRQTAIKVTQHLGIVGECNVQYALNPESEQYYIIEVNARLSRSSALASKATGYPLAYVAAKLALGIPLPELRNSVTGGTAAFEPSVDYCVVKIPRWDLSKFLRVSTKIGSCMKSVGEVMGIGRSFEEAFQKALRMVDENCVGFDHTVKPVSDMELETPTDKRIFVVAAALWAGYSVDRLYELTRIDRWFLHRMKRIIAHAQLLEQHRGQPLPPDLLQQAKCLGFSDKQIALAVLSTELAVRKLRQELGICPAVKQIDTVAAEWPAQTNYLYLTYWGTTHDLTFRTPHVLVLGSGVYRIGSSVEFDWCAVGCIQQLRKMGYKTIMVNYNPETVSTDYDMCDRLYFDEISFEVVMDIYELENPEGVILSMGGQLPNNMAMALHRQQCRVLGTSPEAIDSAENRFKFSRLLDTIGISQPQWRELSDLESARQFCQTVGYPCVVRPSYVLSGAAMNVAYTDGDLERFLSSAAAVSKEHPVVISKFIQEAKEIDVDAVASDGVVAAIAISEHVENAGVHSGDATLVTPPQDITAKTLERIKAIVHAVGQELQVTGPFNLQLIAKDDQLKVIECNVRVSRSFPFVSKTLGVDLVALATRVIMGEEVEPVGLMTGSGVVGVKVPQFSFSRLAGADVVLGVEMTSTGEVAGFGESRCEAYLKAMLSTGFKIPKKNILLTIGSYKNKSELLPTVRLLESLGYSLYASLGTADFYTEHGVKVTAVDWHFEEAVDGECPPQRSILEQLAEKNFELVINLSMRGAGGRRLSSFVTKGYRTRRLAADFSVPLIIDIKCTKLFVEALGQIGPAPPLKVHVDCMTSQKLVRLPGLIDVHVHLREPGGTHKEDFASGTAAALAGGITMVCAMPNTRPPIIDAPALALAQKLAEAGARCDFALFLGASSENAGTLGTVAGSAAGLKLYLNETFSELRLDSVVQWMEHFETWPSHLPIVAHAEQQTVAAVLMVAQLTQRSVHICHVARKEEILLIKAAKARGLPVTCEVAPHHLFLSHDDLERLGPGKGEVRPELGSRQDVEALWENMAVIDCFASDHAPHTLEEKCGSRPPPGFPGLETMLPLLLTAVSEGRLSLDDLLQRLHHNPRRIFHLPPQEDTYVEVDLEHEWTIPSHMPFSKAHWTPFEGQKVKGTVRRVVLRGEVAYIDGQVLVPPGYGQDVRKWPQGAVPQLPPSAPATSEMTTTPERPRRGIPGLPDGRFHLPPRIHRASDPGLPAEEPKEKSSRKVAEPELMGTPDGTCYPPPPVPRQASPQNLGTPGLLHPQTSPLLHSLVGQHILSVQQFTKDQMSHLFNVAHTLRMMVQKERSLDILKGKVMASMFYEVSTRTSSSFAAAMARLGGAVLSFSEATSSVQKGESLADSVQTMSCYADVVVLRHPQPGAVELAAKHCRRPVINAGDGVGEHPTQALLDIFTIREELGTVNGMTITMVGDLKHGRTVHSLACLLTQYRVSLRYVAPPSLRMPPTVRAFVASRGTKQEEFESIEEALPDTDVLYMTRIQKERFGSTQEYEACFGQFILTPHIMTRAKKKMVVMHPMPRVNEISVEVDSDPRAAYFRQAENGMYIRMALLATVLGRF

SMILES: COc1ccc(C2CC(c3cccs3)=NN2C(=O)CCl)cc1 (stereo not shown) [compound 4]
- isoTOP-ABPP reactivity Q9Y679_C391 AUP1 ([1]; 100 μM in situ 231): 20.0
- isoTOP-ABPP reactivity Q86YH6_C71 PDSS2 ([2]; 100 μM in situ 231): 20.0
- isoTOP-ABPP reactivity Q8NBS9_C350 TXNDC5 ([3]; 100 μM in situ 231): 2.4
- isoTOP-ABPP reactivity Q9NWA0_0139 MED9 ([4]; 100 μM in situ 231): 14

SMILES: O=C(CCl)Nc1cccc2ncccc12 [compound 51]
- isoTOP-ABPP ratio Q9Y679_C391 ([1]; 200 μM, insitu, 231): 20.0
- isoTOP-ABPP ratio Q86W42_C35 ([5]; 200 μM, insitu, 231): 1.4

SMILES: CC1CCc2ccccc2N1C(=O)CCl (stereo not shown) [compound 45]
- isoTOP-ABPP ratio Q9Y679_C391 ([1]; 200 μM, insitu, 231): 20.0
- isoTOP-ABPP ratio Q86YH6_C71 ([2]; 200 μM, insitu, 231): 20.0
- isoTOP-ABPP ratio Q8NBS9_C350 ([3]; 200 μM, insitu, 231): 2.1
- isoTOP-ABPP ratio Q86W42_C35 ([5]; 200 μM, insitu, 231): 20.0

SMILES: O=C(CCl)NC(=O)NC12CC3CC(CC(C3)C1)C2 [compound 12]
- isoTOP-ABPP ratio Q86YH6_C71 ([2]; 200 μM, insitu, 231): 20.0
- isoTOP-ABPP ratio Q8NBS9_C350 ([3]; 200 μM, insitu, 231): 9.4
- isoTOP-ABPP ratio, cysteine Q9NWA0_C139 ([4]; 200 μM, insitu, 231): 20.0

SMILES: O=C(CCl)N1CCN(S(=O)(=O)c2ccccc2F)CC1 [compound 10]
- isoTOP-ABPP ratio Q86YH6_C71 ([2]; 200 μM, insitu, 231): 20.0
- isoTOP-ABPP ratio, cysteine O43175_C369 ([6]; ramos): 2.4
- isoTOP-ABPP ratio Q8NBS9_C350 ([3]; 200 μM, insitu, ramos): 1.4
- isoTOP-ABPP ratio, cysteine Q9NWA0_C139 ([4]; 200 μM, insitu, 231): 2.9

SMILES: O=C(CCl)N1CCN(CC(=O)N2CCOCC2)CC1 [compound 29]
- isoTOP-ABPP ratio Q5JPI3_C308 ([7]; 200 μM, insitu, ramos): 1.3
- isoTOP-ABPP ratio Q86YH6_C71 ([2]; 200 μM, insitu, ramos): 1.1
- isoTOP-ABPP ratio P27708_C73 ([8]; ramos): 1.8
- isoTOP-ABPP ratio O43175_C369 ([6]; ramos): 1.1
- isoTOP-ABPP ratio Q9NWA0_C139 ([4]; 200 μM, insitu, ramos): 0.7

SMILES: CC(C)CCOCCNC(=O)CCl [compound 27]
- isoTOP-ABPP ratio Q5JPI3_C308 ([7]; 200 μM, insitu, 231): 0.7
- isoTOP-ABPP ratio Q9Y679_C391 ([1]; 200 μM, insitu, 231): 1.2
- isoTOP-ABPP ratio Q86YH6_C71 ([2]; 200 μM, insitu, 231): 1.3
- isoTOP-ABPP ratio P27708_C73 [8]; 231: 0.5
- isoTOP-ABPP ratio Q8NBS9_C350 ([3]; 200 μM, insitu, 231): 1.1
- isoTOP-ABPP ratio Q86W42_C35 ([5]; 200 μM, insitu, 231): 1.3
- isoTOP-ABPP ratio Q9NWA0_C139 ([4]; 200 μM, insitu, 231): 1.3

SMILES: O=C(CCl)N1CCC(Cc2ccccc2)CC1 [compound 9]
- isoTOP-ABPP reactivity Q8NBS9_C350 TXNDC5 ([3]; 200 μM, insitu, 231): 1.7
- isoTOP-ABPP reactivity Q86W42_C35 THOC6 ([5]; 200 μM, insitu, 231): 20.0

SMILES: O=C(CCl)NC12CC3CC(CC(C3)C1)C2 [compound 21]
- isoTOP-ABPP ratio, cysteine Q5JPI3_C308 ([7]; 200 μM, insitu, 231): 0.9
- isoTOP-ABPP ratio, cysteine Q9Y679_C391 ([1]; 200 μM, insitu, 231): 1.5
- isoTOP-ABPP ratio Q86YH6_C71 ([2]; 200 μM, insitu, 231): 2.1
- isoTOP-ABPP ratio, cysteine P27708_C73 [8]; 231: 0.6
- isoTOP-ABPP ratio, cysteine O43175_C369 [6]; 231: 1.0
- isoTOP-ABPP ratio, cysteine Q9NWA0_C139 ([4]; 200 μM, insitu, 231): 1.5

SMILES: COc1ccc2c(c1)CCCN2C(=O)CCl [compound 2]
- isoTOP-ABPP reactivity Q5JPI3_C308 C3orf38 ([7]; 200 μM, insitu, 231): 2.9
- isoTOP-ABPP reactivity Q86YH6_C71 PDSS2 ([2]; 200 μM, insitu, 231): 20.0
- isoTOP-ABPP reactivity P27708_C73 CAD [8]; 231: 3.1
- isoTOP-ABPP reactivity O43175_C369 PHGDH [6]; 231: 20.0
- isoTOP-ABPP reactivity Q9NWA0_0139 MED9 ([4]; 200 μM, insitu, 231): 4.3

SMILES: Cn1cc(S(=O)(=O)N2CCOCC2)cc1C(=O)NC(=O)CCl [compound 11]
- isoTOP-ABPP ratio, cysteine Q5JPI3_C308 ([7]; 100 μM in situ 231): 1.0
- isoTOP-ABPP ratio, cysteine Q9Y679_C391 ([1]; 100 μM in situ 231): 3.0
- isoTOP-ABPP ratio Q86YH6_C71 ([2]; 100 μM in situ 231): 1.0
- isoTOP-ABPP ratio Q8NBS9_C350 ([3]; 100 μM in situ 231): 3.4
- isoTOP-ABPP ratio Q86W42_C35 ([5]; 100 μM in situ 231): 1.3

SMILES: COc1ccccc1OCCNC(=O)CCl [compound 28]
- isoTOP-ABPP ratio Q8NBS9_C350 ([3]; 200 μM, insitu, 231): 1.1
- isoTOP-ABPP ratio Q86W42_C35 ([5]; 200 μM, insitu, 231): 1.3

SMILES: O=C(CCl)NCCc1c[nH]c2ccccc12 [compound 13]
- isoTOP-ABPP ratio, cysteine Q5JPI3_C308 ([7]; 200 μM, insitu, 231): 1.1
- isoTOP-ABPP ratio, cysteine Q5JPI3_C308 ([7]; 200 μM, insitu, ramos): 1.7
- isoTOP-ABPP ratio Q86YH6_C71 ([2]; 200 μM, insitu, 231): 1.2
- isoTOP-ABPP ratio Q86YH6_C71 ([2]; 200 μM, insitu, ramos): 1.8
- isoTOP-ABPP ratio, cysteine P27708_C73 ([8]; ramos): 5.0
- isoTOP-ABPP ratio, cysteine O43175_C369 ([6]; ramos): 2.0
- isoTOP-ABPP ratio Q8NBS9_C350 ([3]; 200 μM, insitu, 231): 1.3
- isoTOP-ABPP ratio, cysteine Q9NWA0_C139 ([4]; 200 μM, insitu, 231): 1.1

SMILES: Cc1ccc(C=C(C#N)C(=O)NCCN2CCOCC2)cc1 [compound 41]
- isoTOP-ABPP ratio Q5JPI3_C308 ([7]; 200 μM, insitu, 231): 0.7
- isoTOP-ABPP ratio Q86YH6_C71 ([2]; 200 μM, insitu, 231): 0.9
- isoTOP-ABPP ratio P27708_C73 [8]; 231: 0.7
- isoTOP-ABPP ratio Q8NBS9_C350 ([3]; 200 μM, insitu, 231): 0.9
- isoTOP-ABPP ratio Q86W42_C35 ([5]; 200 μM, insitu, 231): 1.1
- isoTOP-ABPP ratio Q9NWA0_C139 ([4]; 200 μM, insitu, 231): 0.8

SMILES: C=CC(=O)Nc1cc(F)c(N2CCN(C(=O)OC(C)(C)C)CC2)c(F)c1 [compound 38]
- isoTOP-ABPP ratio Q86W42_C35 ([5]; 200 μM, insitu, 231): 0.8

SMILES: C=CC(=O)N(Cc1cccnc1)c1cc(C(F)(F)F)cc(C(F)(F)F)c1 [compound 31]
- isoTOP-ABPP ratio O43175_C369 [6]; 231: 20.0
- isoTOP-ABPP ratio O43175_C369 ([6]; ramos): 20.0
- isoTOP-ABPP ratio Q8NBS9_C350 ([3]; 200 μM, insitu, 231): 0.8
- isoTOP-ABPP ratio Q86W42_C35 ([5]; 200 μM, insitu, 231): 0.5

SMILES: COc1cc2c(cc1OC)CN(C(=O)CCl)CC2 [compound 8]
- isoTOP-ABPP reactivity Q9Y679_C391 AUP1 ([1]; 200 μM, insitu, 231): 20.0
- isoTOP-ABPP reactivity P27708_C73 CAD [8]; 231: 20.0
